From US9546144B2, “Bifunctional compounds” (University of Pittsburgh—of the Commonwealth System of …, priority 2011, dated 2017)
Values after ≈ are worked out from the molar mass of the structure shown.

Assay: physchem
Conditions: aqueous buffer, kinetic from dmso stock
Method: General procedure for kinetic solubility measurements. A polypropylene tube was charged with PBS solution (490 μL). To the buffer was added a 10 mM stock solution of compound (10 μL). The tube was vortexed and equilibrated on an end-over-end rotator for 15 min at rt. Aliquots (400 μL) were filtered through 0.45 μm syringe filters and diluted to 5.0 mL with absolute MeOH. Concentrations were determined by UV/VIS analysis.
The test compounds were prepared at concentrations of 10 mM and added to the buffer at room temperature such that cosolvent concentration was fixed at 2%.

SMILES	solubility kinetic at 15 min [µM]
COC1=CC(=O)C[C@@H](C)[C@]12Oc1c(Cl)c(OC)cc(OC)c1C2=O [compound 11, griseofulvin]	180 ± 13 (≈ 63.5 µg/mL)
COC(=O)Nc1nc2ccccc2[nH]1 [compound 10, carbendazim]	140 ± 13 (≈ 26.8 µg/mL)
